Molecular target: T1, hM3 receptor (Homo sapiens, UniProt P20309)
T1 construct: expressed in transfected cells
Assay: Blockade of agonist-mediated calcium release via FLIPR assays (Assay Test Procedure D, C)
Type: cell-based
Details: CHO cells stably expressing the hM3 receptor
Description: Muscarinic receptor subtypes (M1, M3 and M5 receptors), which couple to Gq proteins, activate the phospholipase C (PLC) pathway upon agonist binding to the receptor. As a result, activated PLC hydrolyzes phosphatyl inositol diphosphate (PIP2) to diacylglycerol (DAG) and […] (IP3), which in turn generates calcium release from intracellular stores, i.e., endoplasmic and sarcoplasmic reticulum. The FLIPR (Molecular Devices, Sunnyvale, Calif.) assay capitalizes on this increase in intracellular calcium by using a calcium sensitive dye (Fluo-4AM, Molecular Probes, Eugene, Oreg.) that fluoresces when free calcium binds. This fluorescence event is measured in real time by the FLIPR, which detects the change in fluorescence from a monolayer of cells cloned with human M1 and M3, and chimpanzee M5 receptors. Antagonist potency can be determined by the ability of antagonists to inhibit agonist-mediated increases in intracellular calcium. […]
To determine antagonist potency, the dose-dependent stimulation of intracellular Ca^2+ release for oxotremorine was first determined so that antagonist potency can later be measured against oxotremorine stimulation at an EC90 concentration. […]
The change of fluorescence is expressed as maximum fluorescence minus baseline fluorescence for each well. […]

T1 sequence (P20309 whole entry): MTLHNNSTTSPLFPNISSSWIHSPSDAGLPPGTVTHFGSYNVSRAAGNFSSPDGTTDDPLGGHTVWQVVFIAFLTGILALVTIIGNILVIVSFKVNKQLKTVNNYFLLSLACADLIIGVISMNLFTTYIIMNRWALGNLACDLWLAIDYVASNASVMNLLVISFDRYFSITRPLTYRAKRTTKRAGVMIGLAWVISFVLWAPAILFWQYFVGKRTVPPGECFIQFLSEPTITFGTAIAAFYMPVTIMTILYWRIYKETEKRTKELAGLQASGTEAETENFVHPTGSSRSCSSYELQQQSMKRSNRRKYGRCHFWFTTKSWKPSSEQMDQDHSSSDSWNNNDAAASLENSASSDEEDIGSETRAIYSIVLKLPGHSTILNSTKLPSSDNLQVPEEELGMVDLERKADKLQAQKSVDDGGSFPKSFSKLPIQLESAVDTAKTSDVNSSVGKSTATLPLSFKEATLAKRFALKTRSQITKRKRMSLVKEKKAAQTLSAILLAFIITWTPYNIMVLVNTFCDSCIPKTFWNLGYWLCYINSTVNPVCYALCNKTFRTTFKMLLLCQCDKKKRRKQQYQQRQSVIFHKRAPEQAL

Q: For `C[N+]1(CCCCCCCCCNC[C@H](O)c2ccc(O)c3[nH]c(=O)ccc23)C2CC(OC(=O)C(O)(c3cccs3)c3cccs3)CC1C1OC12.C[N+]1(CCCCCCCCCNC[C@H](O)c2ccc(O)c3[nH]c(=O)ccc23)C2CC(OC(=O)C(O)(c3cccs3)c3cccs3)CC1C1OC12.O=C([O-])C(F)(F)F.O=C([O-])C(F)(F)F` (stereo partly drawn) [Example 1, 7-(2-Hydroxy-2,2-dithiophen-2-ylacetoxy)-9-{9-[(R)-2-hydroxy-2-(8-hydroxy-2-oxo-1,2-dihydroquinolin-5-yl)ethylamino]nonyl}-9-methyl-3-oxa-9-azonia-tricyclo[3.3.1.0^2,4]nonane Ditrifluoroacetate], which Ki is on record?
A: The Ki was less than 50 nM.

From US7893256B2, “Azabicycloalkane compounds” (Theravance, Inc., priority 2003, dated 2011)
